Source: patent US4994554A, “Probursin” (Immunobiology Research Institute, Inc., priority 1988, dated 1991)
Where no end group is shown, it is not given here.

Columns and labels:
Anti-bursin antiserum = experiment: ELISA blocking of anti-bursin antiserum binding by absorbants; design: species or system rabbit; conditions: FIG. 3B
Protocol: Antisera were tested for activity in the following ELISA protocol. The assays were performed according to the method of Voller et al, Bull. WHO, 53:55 (1976). Briefly, polyvinyl chloride microtiter plates (Fisher Scientific, Springfield, N.J.) were coated overnight with 100 ul/well of 10 ug/ml solution of tetramer of probursin in 0.1 M phosphate buffer, pH 7.2. Plates were washed and were postcoated with 150 ul/well of 0.5 percent bovine serum albumin in PBS, pH 7.2, for one hour at room temperature. Plates were washed, dried at 37° C. for 6-24 hours and sealed in dessicated packages and stored at 4° C.
Antisera to be tested were diluted in PBS containing 0.05 percent Tween 20. One hundred ul of the diluted sera were added per well in triplicates. Normal rabbit or mouse serum was used as the negative control. After 60 minutes of incubation at room temperature the plates were washed three times with PBS Tween-20. One hundred ul of alkaline phosphatase conjugated to affinity-purified goat anti-rabbit IgG (heavy and light chains) diluted 1:2000 in PBS Tween-20 were added to each well. The plates were incubated at room temperature for 60 minutes. […] After 30 minutes of incubation at room temperature the reaction was terminated with the addition of 50 ul/well of 5 N NaOH and the optical density was read at 410 nm. […]

Daudi cells = experiment: Cyclic GMP assay in Daudi cells; type: cell-based; conditions: 0 to 1000 micrograms/ml, FIG. 5A
Protocol: Daudi cells were freshly seeded and grown for 2 days with harvesting as described in T. Audhya et al, Arch. Biochem Biophys., 234:167-177 (1984). The cells were washed 3 times in PBS and resuspended in RPMI 1640 at a concentration of 1.0×10^7 cells/ml and were allowed to equilibrate at 37° C. for 30 minutes before the addition of the test compounds (25 ul) of bursin and probursin, and control peptides porcine insulin (A), equine myoglobin (B) and bovine growth hormone (C). The incubation was allowed to proceed in a shaking water bath for 4-5 minutes and was then terminated by addition of 1 ml ice-cold TCA (10%).
The cells in TCA were homogenized and sonicated to release cyclic nucleotide. The suspension was centrifuged at 3000×g for 20 minutes at 4° C. The resulting precipitate was dissolved in 0.1 N NaOH to determine the protein content. TCA was removed from the supernatant fraction by extracting 4 times with 5 ml of water-saturated diethyl ether. […]
Dose-response curves from 0 to 1000 micrograms/ml were evaluated for bursin, probursin and controls. […] A threshold activity was determined for each peptide tested. […] Test results were considered positive if the level of cyclic GMP was greater than 1.52 times (2 standard deviations) that determined for the parallel negative control.

MOPC-315 cells = experiment: Cyclic GMP assay in MOPC-315 cells; type: cell-based; conditions: 0 to 1000 micrograms/ml, FIG. 5B
[1] = system: SV40 transformed hamster beta cells (HIT); experiment: Growth hormone inhibition: GRF-stimulated 3H inositol phosphate (IP) release and growth hormone (GH) accumulation, RIA of supernatant; type: cell-based; conditions: for [GH] / [IP]: 15 min
Protocol: An assay was performed to study the effect of probursin in combination with growth hormone releasing factor (GRF) as this combination effects the release of ^3 H inositol phosphate (IP) and growth hormone (GH) accummulation in SV40 transformed hamster beta cells (HIT). The experiment was performed according to the procedures described in M. J. Berridge et al, cited above.
Briefly described, commercially available HIT cells were incubated at 37° C. for 1 hour in metabolic RPMI medium with 5% fetal calf serum (FCS). GRF in varying concentrations indicated in the Table below was added to the cell culture and incubated for 15 minutes at 37° C. The cells were then centrifuged at 800 rpm and the supernatant collected. Levels of GH and IP were measured in the supernatant by radioimmunoassay (RIA) also according to Berridge et al. These measurements formed the GRF control.
The same procedure was followed without the addition of GRF and is indicated below as the control.
Similarly, to indicate the effect of probursin on GRF, the procedure above was followed except that GRF and probursin at the appropriate concentrations indicated in the Table below were added to the cells together and followed by 15 minutes incubation and centrifugation. When the supernatant was measured by RIA as described above, the resulting concentrations of IP and GH were determined as illustrated in the Table below.

[2] = GRF (0.1 nM) + Probursin (.1 μM)
[3] = GRF (1 nM) + Probursin (0.1 μM)
[4] = GRF (1 nM) + Probursin (1.0 μM)
[5] = GRF (10 nM) + Probursin (10.0 μM)
[6] = GRF 0.1 nM alone, HIT cell supernatant
[7] = GRF 1 nM alone, HIT cell supernatant
[8] = GRF 10 nM alone, HIT cell supernatant

Substance	blocking of anti-bursin antiserum binding (Anti-bursin antiserum)	induction of intracellular cyclic GMP (dose-response) (Daudi cells)	induction of intracellular cyclic GMP (dose-response) (MOPC-315 cells)	[GH] [1, 2]	[IP] [1, 2]	[GH] [1, 3]	[IP] [1, 3]	[GH] [1, 4]	[IP] [1, 4]	[GH] [1, 5]	[IP] [1, 5]	effect on growth hormone releasing factor action (IP and GH) ([1]; HIT cells, summary in words)	release of growth hormone ([1]; summary in words, refers to Example 6)	[GH] [1, 6]	[IP] [1, 6]	[GH] [1, 7]	[IP] [1, 7]	[GH] [1, 8]	[IP] [1, 8]
FFWKTKPRKHGGRR [Probursin, Phe-Phe-Trp-Lys-Thr-Lys-Pro-Arg-Lys-His-Gly-Gly-Arg-Arg]	blocked	active	active	35 ± 4 n/ml	239 ± 13 cpm	480 ± 31 n/ml	1911 ± 310 cpm	77 ± 6 n/ml	444 ± 22 cpm	29 ± 3 n/ml	382 ± 16 cpm	marked suppression	inhibit	–	–	–	–	–	–
GRF: growth hormone releasing factor, stimulus in HIT cell assay (YADAIFTNSYRKVLGQLSARKLLQDIMSRQQGESNQERGARARL; ends and bridges not checked; UniProt P01286 32-75, looked up) [reference compound]	–	–	–	–	–	–	–	–	–	–	–	–	–	162 ± 4 n/ml	489 ± 19 cpm	648 ± 26 n/ml	2810 ± 290 cpm	1162 ± 84 n/ml	8962 ± 821 cpm
